Assay results from patent US6407071B1, “Method and composition for treating malignant cells” (Co-Enzyme Technology Ltd., priority 1998, dated 2002).
Values joined by “and” are separate entries in the source; they are usually repeats but may differ in a detail not shown here. Identical values can stand only once.

What was measured:
human tumor cells = assay: Oxidizing agents found toxic to human tumor cells; type: cell-based
[1] = tested on: localized malignant melanomas; settings: cited from earlier work
prostate cancer = assay: Six month study of P.S.A. levels in prostate cancer patients: glyceraldehyde, Glycosole and the combination; type: in vivo, human; parameters: key to Patient dead (#): # Dead; P.S.A. Levels during 6 month from initiation of treatment, 1 mo. / P.S.A. Levels during 6 month from initiation of treatment, 2 mo. / P.S.A. Levels during 6 month from initiation of treatment, 3 mo. / P.S.A. Levels during 6 month from initiation of treatment, 4 mo. / P.S.A. Levels during 6 month from initiation of treatment, 5 mo. / P.S.A. Levels during 6 month from initiation of treatment, 6 mo.: unit not given here
Description: A six month study was conducted comparing the anti-cancer effect of Glycosole (Glyc., the glucuronide of para-methoxy-phenol), glyceraldehyde, and a combination of the two compounds. These compounds were administered to patients suffering from prostate cancer separately and together. All of the patients suffered from bone metastases and no longer responded to conventional hormone therapy. Patients were administered either 3 grams glyceraldehyde per day, 6 grams per day of Glycosole, or a combination of both agents.

cancer cells = assay: Toxicity to cancer cells in vitro relative to para-methoxy phenol; type: cell-based; settings: compared with para-methoxy phenol

Molecule: CCC(C)(C)c1ccc(O)cc1 [4-tert-amyl phenol]
- Toxicity to human tumor cells (human tumor cells): toxic to human tumor cells

Molecule: COc1ccc(O)c(C(C)(C)C)c1 [butylated hydroxyanisole]
- Toxicity to human tumor cells (human tumor cells): toxic to human tumor cells

Molecule: COc1ccc(O)cc1 [4-hydroxyanisole]
- Effect on localized malignant melanomas ([1]; intra-arterial infusion): underwent regression
- Therapeutic effect in malignant melanoma ([1]; intravenous administration): not therapeutically effective
- Toxicity to human tumor cells (human tumor cells): toxic to human tumor cells

Molecule: NCCc1ccc(O)c(O)c1 [dopamine, 3,4-dihydroxyphenethylanine]
- Toxicity to human tumor cells (human tumor cells): toxic to human tumor cells

Molecule: COC(=O)c1cc(O)c(O)c(O)c1 [methyl gallate]
- Toxicity to human tumor cells (human tumor cells): toxic to human tumor cells

Molecule: N[C@@H](Cc1ccc(O)cc1)C(=O)O [tyrosine]
- Toxicity to human tumor cells (human tumor cells): toxic to human tumor cells

Molecule: N[C@@H](Cc1cc(O)c(O)cc1O)C(=O)O [6-hydroxydopa, 3,4,6-trihydroxyphenylalanine]
- Toxicity to human tumor cells (human tumor cells): toxic to human tumor cells

Molecule: 4-benzomethoxy phenol
- Toxicity to human tumor cells (human tumor cells): toxic to human tumor cells

Molecule: Oc1ccc(O)cc1 [hydroquinone]
- Toxicity to human tumor cells (human tumor cells): toxic to human tumor cells

Molecule: N[C@@H](Cc1ccc(O)c(O)c1)C(=O)O [L-3,4-dihydroxyphenylalanine]
- Toxicity to human tumor cells (human tumor cells): toxic to human tumor cells

Molecule: CCCOc1ccc(O)cc1 [4-propoxy phenol]
- Toxicity to human tumor cells (human tumor cells): toxic to human tumor cells

Molecule: O=CC(O)CO (stereo not shown) [Glycer Aldehyde, glyceraldehyde]
- P.S.A. Levels during 6 month from initiation of treatment, 1 mo. (prostate cancer; 1 mo., single patients, bone metastases, glyceraldehyde 3 g/day, Glycosole 6 g/day or both): 760 and 190 and 2250 and 340 and 910 and 150
- P.S.A. Levels during 6 month from initiation of treatment, 2 mo. (prostate cancer; 2 mo., single patients, glyceraldehyde 3 g/day, Glycosole 6 g/day or both): 680 and 180 and 1100 and 380 and 850 and 90
- P.S.A. Levels during 6 month from initiation of treatment, 3 mo. (prostate cancer; 3 mo., single patients, glyceraldehyde 3 g/day, Glycosole 6 g/day or both): 600 and 150 and 1000 and 310 and 740 and 80
- P.S.A. Levels during 6 month from initiation of treatment, 4 mo. (prostate cancer; 4 mo., single patients, glyceraldehyde 3 g/day, Glycosole 6 g/day or both): 580 and 145 and 980 and 280 and 760 and 80
- P.S.A. Levels during 6 month from initiation of treatment, 5 mo. (prostate cancer; 5 mo., single patients, glyceraldehyde 3 g/day, Glycosole 6 g/day or both): 540 and 140 and 220 and 680 and 64
- P.S.A. Levels during 6 month from initiation of treatment, 6 mo. (prostate cancer; 6 mo., single patients, glyceraldehyde 3 g/day, Glycosole 6 g/day or both): 420 and 100 and 180 and 360 and 60
- P.S.A. Levels during 6 month from initiation of treatment, 10 mo. (prostate cancer; 10 mo., single patients): 380 and 480 and 600
- P.S.A. Levels during 6 month from initiation of treatment, 11 mo. (prostate cancer; 11 mo., single patients): 920 and 700
- P.S.A. Levels during 6 month from initiation of treatment, 12 mo. (prostate cancer; 12 mo., single patients): 846
- Patient dead (#) (prostate cancer; marked in column 5 mo.): #
- Patient dead (#) (prostate cancer; marked in column 11 mo.): #
- Patient dead (#) (prostate cancer; marked in column 12 mo.): #
- Response of patients to the treatment (prostate cancer; prostate cancer with bone metastases, 3 grams glyceraldehyde per day, 6 grams per day of Glycosole, or both): None of the patients administered glyceraldehyde alone responded

Molecule: Oc1cccc(O)c1 [resorcinol]
- Toxicity to human tumor cells (human tumor cells): toxic to human tumor cells

Molecule: CCC(C)(C)c1ccc(O[C@@H]2O[C@H](C(=O)O)[C@@H](O)[C@H](O)[C@H]2O)cc1 [4-tert-amyl phenyl glucuronide]
- Toxicity to cancer cells in vitro relative to para-methoxy phenol (cancer cells): 5.5 times
